As usually defined, the EC50 is the midpoint of the concentration-response curve.

Each structure is given as a SMILES string.

Test [1] deals with T1, ΔF508-CFTR (Homo sapiens, UniProt P13569, DEL508-508).
T1 construct: host or cells: CFBE41o-, doxycycline-inducible
The test can be described thus: CFTR cell surface levels using HRP-tagged ΔF508-CFTR expressing CFBE cells, in the presence of a co-corrector. In kind it is cell-based. The conditions noted are these: HRP-tagged ΔF508-CFTR CFBE cells, in the presence of 3 μM co-corrector; for EC50: read-out: EC50. In a few lines:
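Chemiluminescent read-out of surface HRP (15 min, dark) after PBS washes. Activity is normalized as 100×(sample−DMSO)/(3 μM co-corrector alone−DMSO).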

Test [2] deals with T1, ΔF508-CFTR. Nature of the test: CFTR cell surface levels using HRP-tagged ΔF508-CFTR expressing CFBE cells, intrinsic corrector capacity. The test is classed as cell-based. On the set-up: % Activation: concentration or dose not given beside the values. The following applies: HRP-tagged ΔF508-CFTR expressing CFBE41o- cells, compound alone (intrinsic corrector capacity), 20 hours at 33° C.; for EC50: read-out: EC50. In a few lines:
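Read-out: chemiluminescent HRP activity of ECL4-HRP-tagged ΔF508-CFTR at the cell surface, 15 min substrate in dark. Normalized as 100×(sample−DMSO)/(positive control−DMSO).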

T1 sequence (P13569 with tags, fused parts or gaps DEL508-508): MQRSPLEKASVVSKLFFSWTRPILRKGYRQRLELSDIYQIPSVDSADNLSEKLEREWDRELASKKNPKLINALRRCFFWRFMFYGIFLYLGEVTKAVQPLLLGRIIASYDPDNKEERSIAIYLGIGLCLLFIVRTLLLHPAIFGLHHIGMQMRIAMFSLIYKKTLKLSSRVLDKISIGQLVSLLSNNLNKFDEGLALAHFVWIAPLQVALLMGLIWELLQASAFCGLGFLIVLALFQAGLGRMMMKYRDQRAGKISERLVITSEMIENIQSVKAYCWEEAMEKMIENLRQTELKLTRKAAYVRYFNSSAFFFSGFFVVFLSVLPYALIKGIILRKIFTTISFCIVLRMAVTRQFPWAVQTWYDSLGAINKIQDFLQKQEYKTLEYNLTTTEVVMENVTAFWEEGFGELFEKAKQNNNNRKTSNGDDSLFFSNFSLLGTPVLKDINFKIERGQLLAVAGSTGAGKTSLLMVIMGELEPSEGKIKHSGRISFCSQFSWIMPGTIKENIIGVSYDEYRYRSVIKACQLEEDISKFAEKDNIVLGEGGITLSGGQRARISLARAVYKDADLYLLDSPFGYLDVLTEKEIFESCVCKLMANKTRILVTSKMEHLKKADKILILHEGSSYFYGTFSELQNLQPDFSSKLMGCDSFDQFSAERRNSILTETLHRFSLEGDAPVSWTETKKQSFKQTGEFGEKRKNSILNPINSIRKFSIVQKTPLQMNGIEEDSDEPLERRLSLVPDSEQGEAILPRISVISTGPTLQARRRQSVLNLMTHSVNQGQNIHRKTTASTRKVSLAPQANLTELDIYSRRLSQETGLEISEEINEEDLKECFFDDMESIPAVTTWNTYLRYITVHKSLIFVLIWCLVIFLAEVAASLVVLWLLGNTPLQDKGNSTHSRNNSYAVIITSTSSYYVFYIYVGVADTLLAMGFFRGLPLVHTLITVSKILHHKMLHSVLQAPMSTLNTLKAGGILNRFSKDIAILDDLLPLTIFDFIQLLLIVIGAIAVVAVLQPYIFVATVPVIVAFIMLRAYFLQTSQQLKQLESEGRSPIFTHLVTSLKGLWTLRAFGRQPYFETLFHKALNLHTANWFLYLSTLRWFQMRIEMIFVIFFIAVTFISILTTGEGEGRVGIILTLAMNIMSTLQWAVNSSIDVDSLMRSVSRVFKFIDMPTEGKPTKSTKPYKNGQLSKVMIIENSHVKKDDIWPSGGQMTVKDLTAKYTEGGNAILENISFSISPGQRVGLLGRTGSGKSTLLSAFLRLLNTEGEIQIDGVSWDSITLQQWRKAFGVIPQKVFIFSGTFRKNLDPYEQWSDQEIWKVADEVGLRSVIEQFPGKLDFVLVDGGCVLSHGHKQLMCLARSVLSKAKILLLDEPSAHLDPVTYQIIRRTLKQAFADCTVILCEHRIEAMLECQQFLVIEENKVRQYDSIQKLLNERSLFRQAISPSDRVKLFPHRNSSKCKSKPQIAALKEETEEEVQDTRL

For `CC(C)c1nn(-c2cccc(N3CCC3)c2)c2nc(C(=O)NS(C)(=O)=O)cc(-c3ccc(N4CCOCC4)cc3)c12` [Compound 10, 1-[3-(azetidin-1-yl)phenyl]-N-(methanesulfonyl)-4-[4-(morpholin-4-yl)phenyl]-3-(propan-2-yl)-1H-pyrazolo[3,4-b]pyridine-6-carboxamide], on ΔF508-CFTR [1], the “% Activation” value was 606.5% and the concentration giving a half-maximal response (EC50) amounted to 443 nM. Further, at ΔF508-CFTR [2], the “% Activation” value was determined as 418.25% and the EC50 came to 572 nM.

On to `CC(C)c1nn(C2CCCCC2)c2nc(C(=O)NS(C)(=O)=O)cc(-c3cnc(N4CCOCC4)nc3)c12` [Compound 11, 1-cyclohexyl-N-(methanesulfonyl)-4-[2-(morpholin-4-yl)pyrimidin-5-yl]-3-(propan-2-yl)-1H-pyrazolo[3,4-b]pyridine-6-carboxamide], for which the “% Activation” value on ΔF508-CFTR [1] is on record as 381.33%; on ΔF508-CFTR [2], 164.7%. In addition, the concentration giving a half-maximal response (EC50) on ΔF508-CFTR [1] came out at 455 nM; on ΔF508-CFTR [2], 557 nM.

As for `Cc1nn(-c2ccccc2)c2nc(C(=O)NS(C)(=O)=O)cc(N3CCCCC3)c12` [Compound 13, N-(methanesulfonyl)-3-methyl-1-phenyl-4-(piperidin-1-yl)-1H-pyrazolo[3,4-b]pyridine-6-carboxamide], the “% Activation” value at ΔF508-CFTR [1] is listed as 341.75%; on ΔF508-CFTR [2] it was 153.85%. Further, the EC50 came to 1470 nM on ΔF508-CFTR [1] and 2360 nM at ΔF508-CFTR [2].

As to `CS(=O)(=O)NC(=O)c1cc(-c2ccc(N3CCC(C#N)CC3)nc2)c2c(C3CCC3)nn(C3CCCCC3)c2n1` [Compound 104, 4-[6-(4-cyanopiperidin-1-yl)pyridin-3-yl]-3-cyclobutyl-1-cyclohexyl-N-(methanesulfonyl)-1H-pyrazolo[3,4-b]pyridine-6-carboxamide], at ΔF508-CFTR [1], the “% Activation” value was found to be 411.33% and the EC50 was determined as 344 nM. On ΔF508-CFTR [2], the “% Activation” value amounted to 239.6% and the 50% effective concentration (EC50) turned out to be 497 nM.

The values above are taken from US10259810B2, “N-sulfonylated pyrazolo[3,4-b]pyridin-6-carboxamides and method of use” (AbbVie S.à.r.l., priority 2015, dated 2019).
